Experimental findings from ChEMBL document CHEMBL5620415, “Design, synthesis and anti-hepatic fibrosis activity of novel diphenyl vitamin D receptor agonists” (Eur J Med Chem, 2023) are described below.

A short description of data set [1]: Cytotoxicity against human LX-2 cells by CCK-8 assay. Type of data set: toxicity, cell-based.
Data set [2] addresses T1, Vitamin D3 receptor (Homo sapiens) (UniProt P11473).
T1 sequence (whole entry): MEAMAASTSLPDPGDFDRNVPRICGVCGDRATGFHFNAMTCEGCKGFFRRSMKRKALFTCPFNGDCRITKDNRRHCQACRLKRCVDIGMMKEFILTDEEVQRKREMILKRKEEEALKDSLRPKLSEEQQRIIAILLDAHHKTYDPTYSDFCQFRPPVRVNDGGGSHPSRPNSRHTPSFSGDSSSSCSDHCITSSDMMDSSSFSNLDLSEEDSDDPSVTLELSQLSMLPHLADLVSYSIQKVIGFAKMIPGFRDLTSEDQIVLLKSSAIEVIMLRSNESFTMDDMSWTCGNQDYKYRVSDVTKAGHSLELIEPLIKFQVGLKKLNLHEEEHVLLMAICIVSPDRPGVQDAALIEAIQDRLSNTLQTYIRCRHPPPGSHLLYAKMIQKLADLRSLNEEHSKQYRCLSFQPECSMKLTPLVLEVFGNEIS
Nature of the data set: Binding affinity to human full-length Vitamin D receptor assessed as relative binding affinity at 1 uM incubated for 2 hrs by fluorescence polarization based competitive binding assay relative to calcipotriol. In general terms: In fluorescence polarisation assays a small probe gives low polarisation when free and higher when bound to something large.

Data set [3] concerns the target T1, Vitamin D3 receptor (Homo sapiens). Nature of the data set: Agonist activity at Vitamin D receptor in human LX-2 cells assessed as transcriptional activity by measuring induction of CYP24A expression at 0.5 uM by RT-qPCR analysis relative to control. It counts as cell-based. Background: In qPCR the cycle at which signal appears reflects the starting amount.

Activity calls are given as the source filed them. No cut-off for these calls is given here. Bounds are passed on as bounds.

As usually defined, the IC50 is the concentration needed to halve the response being measured. Consider `CCC(O)(CC)CCCCOc1ccc(/C=C/c2ccc(CO)c(CO)c2)cc1`, for which, in data set [1], the IC50 is over 30 µM. The RBA in data set [2] came to 31.2%.
For `CC(C)(O)CCCCOc1cccc(COc2ccc(CO)c(CO)c2)c1` the same measures were over 30 µM and 9.25%.
As to `C=CCC(O)(CC=C)CCCCCOc1cccc(COc2ccc(CO)c(CO)c2)c1`, the result in data set [3] (filed as agonist) was Active. Also, the IC50 in data set [1] was over 30 µM. Also, the RBA in data set [2] (filed as agonist) worked out at 46.2%.
For `CCC(O)(CC)CCCOc1cccc(C(C)Oc2ccc(CO)c(CO)c2)c1` (stereo not given), the 50% inhibitory concentration (IC50) in data set [1] is over 30 µM. Further, the RBA in data set [2] (filed as agonist) is 45.1%.
For `CCCCC(Oc1ccc(CO)c(CO)c1)c1cccc(OCCCC(O)(CC)CC)c1` (stereo not given) the same measures were over 30 µM and 42.2%.
`CC(C)(O)CCCCOc1ccc(CCc2ccc(CO)c(CO)c2)cc1`: the outcome in data set [3] was inactive. In data set [1], this compound showed an IC50 of over 30 µM. The RBA in data set [2] was 11.6%.
As to `OCc1ccc(/C=C/c2cccc(OCCCC(F)(F)F)c2)cc1CO`, the result in data set [3] (filed as agonist) was Active. Further, the IC50 in data set [1] is over 30 µM. For the same compound, the RBA in data set [2] amounted to 30.1%.
Take `CCC(O)(CC)CCCCOc1cccc(COc2ccc(CO)c(CO)c2)c1`: in data set [1], the IC50 is over 30 µM. Besides, the RBA in data set [2] stood at 35.8%.
`CCC(O)(CC)CCCCCOc1cccc(/C=C/c2ccc(CO)c(CO)c2)c1` yielded a half-maximal inhibitory concentration (IC50) in data set [1] of over 30 µM. For the same compound, the RBA in data set [2] came out at 33.5%.
For `O=C(CCCOc1cccc(COc2ccc(CO)c(CO)c2)c1)N1CCCCC1` the same measures were over 30 µM and 24.9%.
`CCC(O)(CC)CCOc1cccc(/C=C/c2ccc(CO)c(CO)c2)c1`: the IC50 in data set [1] was over 30 µM. Further, the RBA in data set [2] was 38.1%.
For `OCc1ccc(/C=C/c2ccc(OCCCN3CCOCC3)cc2)cc1CO` the same measures were over 30 µM and 32.4%.
For `OCCCCCOc1cccc(/C=C/c2ccc(CO)c(CO)c2)c1` the same measures were over 30 µM and 5.78%.
For `CN1CCN(C(=O)CCCOc2cccc(COc3ccc(CO)c(CO)c3)c2)CC1` the same measures were over 30 µM and 30.1%.
`COC(=O)CCCOc1cccc(/C=C/c2ccc(CO)c(CO)c2)c1`: in data set [1], the IC50 was over 30 µM. For the same compound, the RBA in data set [2] came to 34.1%.
On to `OCCCCCOc1ccc(CCc2ccc(CO)c(CO)c2)cc1`, for which, in data set [3], the outcome was inactive. The same compound showed an IC50 in data set [1] of over 30 µM. Moreover, the RBA in data set [2] (filed as agonist) was 46.2%.
Compound `OCCCCOc1cccc(COc2ccc(CO)c(CO)c2)c1` displayed an IC50 in data set [1] of over 30 µM. Also, in data set [2] (filed as agonist), the RBA turned out to be 41.6%.
For `COC(=O)CCCCOc1cccc(COc2ccc(CO)c(CO)c2)c1` the same measures were over 30 µM and 45.7%.
Compound `CC(C)(O)CCCCCOc1cccc(COc2ccc(CO)c(CO)c2)c1` came in with an IC50 in data set [1] of over 30 µM. Besides, the RBA in data set [2] was found to be 27.2%.
The compound `C=CCC(O)(CC=C)CCCOc1cccc(/C=C/c2ccc(CO)c(CO)c2)c1` had an IC50 in data set [1] of over 30 µM. Moreover, in data set [2] (filed as agonist), the RBA was 40.5%.
In data set [1], `COC(=O)CCCCCOc1cccc(COc2ccc(CO)c(CO)c2)c1` came in with an IC50 of over 30 µM. Further, the RBA in data set [2] amounted to 29.5%.
For `OCCCCCCOc1cccc(COc2ccc(CO)c(CO)c2)c1` the same measures were over 30 µM and 9.25%.
On to `O=C(O)CCCOc1cccc(COc2ccc(CO)c(CO)c2)c1`, for which the IC50 in data set [1] was over 30 µM. In addition, the RBA in data set [2] came to 9.25%.
As to `O=C(O)CCCOc1cccc(/C=C/c2ccc(CO)c(CO)c2)c1`, the IC50 in data set [1] was over 30 µM. Further, the RBA in data set [2] is 37%.
`CN1CCN(CCCOc2ccc(/C=C/c3ccc(CO)c(CO)c3)cc2)CC1`: the IC50 in data set [1] is over 30 µM. Moreover, the RBA in data set [2] came to 21.4%.
With `CCC(O)(CC)CCCCCOc1cccc(COc2ccc(CO)c(CO)c2)c1`, the IC50 in data set [1] is over 30 µM. Moreover, the RBA in data set [2] amounted to 3.47%.
For the compound `O=C(CCCOc1cccc(COc2ccc(CO)c(CO)c2)c1)N1CCOCC1`, in data set [1], the concentration for half-maximal inhibition (IC50) is over 30 µM. Also, the RBA in data set [2] turned out to be 17.9%.
In the case of `OCCCCOc1cccc(CCc2ccc(CO)c(CO)c2)c1`, the outcome in data set [3] was inactive. Moreover, the IC50 in data set [1] is over 30 µM. Moreover, in data set [2], the RBA came out at 32.4%.
`OCc1ccc(/C=C/c2cccc(OCCCC(O)(c3ccccc3)c3ccccc3)c2)cc1CO` showed an IC50 in data set [1] of over 30 µM. The RBA in data set [2] came out at 23.7%.
In data set [1], `COC(=O)CCCOc1cccc(COc2ccc(CO)c(CO)c2)c1` gave an IC50 of over 30 µM. In addition, in data set [2], the RBA is 19.6%.
For `CCC(O)(CC)CCCOc1cccc(COc2ccc(CO)c(CO)c2)c1`, in data set [3] (filed as agonist), the result was Active. In addition, the IC50 in data set [1] is over 30 µM. Besides, the RBA in data set [2] (filed as agonist) was determined as 43.4%.
Regarding `CC(C)(O)CCCOc1cccc(CCc2ccc(CO)c(CO)c2)c1`, the outcome in data set [3] was inactive. Moreover, the IC50 in data set [1] is over 30 µM. For the same compound, the RBA in data set [2] was determined as 14.4%.
For `C=CCC(O)(CC=C)CCCOc1cccc(COc2ccc(CO)c(CO)c2)c1`, in data set [1], the IC50 was over 30 µM. Also, in data set [2], the RBA worked out at 20.2%.
For `OCCCCCOc1ccc(/C=C/c2ccc(CO)c(CO)c2)cc1` the same measures were over 30 µM and 36.4%.
For `CC(O)CCCOc1cccc(/C=C/c2ccc(CO)c(CO)c2)c1` (stereo not given), the IC50 in data set [1] was over 30 µM. For the same compound, the RBA in data set [2] came to 8.67%.
As for `CCN(CC)CCCOc1ccc(/C=C/c2ccc(CO)c(CO)c2)cc1`, in data set [1], the IC50 was over 30 µM. For the same compound, the RBA in data set [2] (filed as agonist) came to 49.7%.
`CCN(CC)C(=O)CCCOc1cccc(COc2ccc(CO)c(CO)c2)c1` came in with an IC50 in data set [1] of over 30 µM. For the same compound, the RBA in data set [2] amounted to 8.67%.
For the compound `C=CCC(O)(CC=C)CCCCOc1ccc(CCc2ccc(CO)c(CO)c2)cc1`, in data set [3], the result was inactive. Further, the IC50 in data set [1] was over 30 µM. In addition, in data set [2], the RBA was 16.2%.
Regarding `CCC(O)(CC)CCCOc1cccc(CCc2ccc(CO)c(CO)c2)c1`, the result in data set [3] was inactive. In data set [1], this compound returned an IC50 of over 30 µM. Besides, the RBA in data set [2] was found to be 28.3%.
As to `CCN(CC)CCCOc1cccc(COc2ccc(CO)c(CO)c2)c1`, the IC50 in data set [1] is over 30 µM. Also, the RBA in data set [2] (filed as agonist) was determined as 49.7%.
Turning to `C=CCC(O)(CC=C)CCCOc1cccc(CCc2ccc(CO)c(CO)c2)c1`, the result in data set [3] was inactive. In data set [1], this compound showed an IC50 of over 30 µM. The RBA in data set [2] is 35.3%.
For the compound `CC(C)(O)CCCOc1cccc(/C=C/c2ccc(CO)c(CO)c2)c1`, the half-maximal inhibitory concentration (IC50) in data set [1] is over 30 µM. Further, the RBA in data set [2] (filed as agonist) turned out to be 44.5%.
Compound `CCC(O)(CC)CCCOc1cccc(C(Oc2ccc(CO)c(CO)c2)C(C)C)c1` (stereo not given) came in with an IC50 in data set [1] of over 30 µM. Also, the RBA in data set [2] is 36.4%.
In the case of `CCC(O)(CC)CCCCOc1cccc(/C=C/c2ccc(CO)c(CO)c2)c1`, in data set [1], the IC50 was over 30 µM. In data set [2], the RBA is 23.1%.
Take `CCN(CC)CCCOc1cccc(/C=C/c2ccc(CO)c(CO)c2)c1`: in data set [1], the IC50 was over 30 µM. For the same compound, in data set [2] (filed as agonist), the RBA came out at 42.2%.
In data set [1], `OCCCCOc1cccc(/C=C/c2ccc(CO)c(CO)c2)c1` showed an IC50 of over 30 µM. Moreover, the RBA in data set [2] was 11.6%.
For `OCc1ccc(/C=C/c2cccc(OCCCN3CCOCC3)c2)cc1CO` the same measures were over 30 µM and 34.1%.
`CCCC(Oc1ccc(CO)c(CO)c1)c1cccc(OCCCC(O)(CC)CC)c1` (stereo not given) returned an IC50 in data set [1] of over 30 µM. The RBA in data set [2] (filed as agonist) is 46.2%.
Consider `OCCCCCOc1cccc(COc2ccc(CO)c(CO)c2)c1`, for which the half-maximal inhibitory concentration (IC50) in data set [1] was over 30 µM. Also, the RBA in data set [2] was determined as 9.83%.
In data set [1], `CC(C)(O)CCCOc1cccc(COc2ccc(CO)c(CO)c2)c1` registered an IC50 of over 30 µM. In addition, in data set [2], the RBA came to 27.2%.
